Reference: US20220411471A1, “CELL-PERMEABLE CYCLIC PEPTIDES AND USES THEREOF” (Unnatural Products Inc., priority 2019, published 2022)
Starred links: 1 amine or outer side, 2 acyl side, 3 side chain; linkers in the order of their positions; H or OH if unused. Non-standard residues stand in square brackets, D forms with d. Residues, ends and D or L forms follow the SMILES beside them. Azetidine3carboxylic = O=C(C1CN([*:1])C1)[*:2]; Phe(4-Cl) = N[C@@H](Cc1ccc(Cl)cc1)C(=O)O; Phe(3-F) = N[C@@H](Cc1cccc(F)c1)C(=O)O; Phe(4-F) = N[C@@H](Cc1ccc(F)cc1)C(=O)O; 3Pal = N[C@@H](Cc1cccnc1)C(=O)O; 2Thi = N[C@@H](Cc1cccs1)C(=O)O; dNMeV = CN[C@@H](C(=O)O)C(C)C; Tle = CC(C)(C)[C@H](N)C(=O)O; dPip = O=C(O)[C@H]1CCCCN1; NMeA = CN[C@@H](C)C(=O)O; Nme = COCCNCC(=O)O

What follows are compounds tested against T1, Human MDM2 (HDM2) 1-116 (Homo sapiens, UniProt Q00987) (assay: Fluorescence polarization assay, MDM2/p53 (Table 3)).
T1 construct: Human MDM2 (HDM2) 1-116
Assay type: binding
Description: (§1) Human MDM2 (HDM2) 1-116 (20 μL) and FITC-labeled p53 (18-26), 50 nM and 10 nM respectively in 10 mM Tris, 50 mM NaCl, 0.01% Tween20, and 1 mM DTT at pH 7.4 were dispensed into an opaque, black, 384 well plate. Compounds dissolved in DMSO were pin transferred (˜200 nL) to the 384 well plate containing the MDM2/p53 solution. After incubation for 10 minutes, the fluorescence polarization was read on a Molecular Devices SpectraMax plate reader equipped with a Fluorescein FP cartridge. In addition to probe alone (positive control) and probe/MDM2 (negative control), a titration of linear p53(18-26) was included on every plate as an additional control. IC50 values were fit using either Prism or Collaborative Drug Discovery.
as §1, with “and FAM-labeled RFMDYWEGL-NH2,” for “and FITC-labeled p53 (18-26),”, “NaCl, 0.010%” for “NaCl, 0.01%”, “transferred (˜100-200” for “transferred (˜200”, “for 60” for “for 10”

T1 sequence (Q00987 1-116): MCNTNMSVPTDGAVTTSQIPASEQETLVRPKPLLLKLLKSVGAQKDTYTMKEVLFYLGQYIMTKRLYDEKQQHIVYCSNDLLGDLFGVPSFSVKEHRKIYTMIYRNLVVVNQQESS

`COCCN1CC(=O)N(C)[C@@H](C)C(=O)N[C@@H](Cc2ccc(F)cc2)C(=O)N(C)[C@@H](C)C(=O)N[C@@H](Cc2ccc(Cl)cc2)C(=O)N(C)[C@H](C(C)C)C(=O)N2CCC[C@H]2C(=O)N[C@@H](Cc2ccccc2)C(=O)N[C@@H](C(C)(C)C)C(=O)N[C@@H](Cc2ccc(O)cc2)C1=O` [Compound 14, [H]Oc1ccc(C[C@@H]2NC(=O)[C@@H](NC(=O)[C@H](Cc3ccccc3)NC(=O)[C@@H]3CCCN3C(=O)[C@@H](C(C)C)N(C)C(=O)[C@H](Cc3ccc(Cl)cc3)NC(=O)[C@H](C)N(C)C(=O)[C@H](Cc3ccc(F)cc3)NC(=O)[C@H](C)N(C)C(=O)CN(CCOC)C2=O)C(C)(C)C)cc1] (cyclo(F[Tle]Y[Nme][NMeA][Phe(4-F)][NMeA][Phe(4-Cl)][dNMeV]P)) and `COCCN1CC(=O)N(C)[C@@H](C)C(=O)N[C@@H](Cc2ccc(F)cc2)C(=O)N(C)[C@@H](C)C(=O)N[C@@H](Cc2ccc(Cl)cc2)C(=O)N(C)[C@H](C(C)C)C(=O)N2CCC[C@H]2C(=O)N[C@@H](Cc2ccccc2)C(=O)N[C@@H](C(C)(C)C)C(=O)N[C@@H](Cc2cccc(F)c2)C1=O` [Compound 24, COCCN1CC(=O)N(C)[C@@H](C)C(=O)N[C@@H](Cc2ccc(F)cc2)C(=O)N(C)[C@@H](C)C(=O)N[C@@H](Cc2ccc(Cl)cc2)C(=O)N(C)[C@H](C(C)C)C(=O)N2CCC[C@H]2C(=O)N[C@@H](Cc2ccccc2)C(=O)N[C@H](C(=O)N[C@@H](Cc2cccc(F)c2)C1=O)C(C)(C)C] (cyclo(F[Tle][Phe(3-F)][Nme][NMeA][Phe(4-F)][NMeA][Phe(4-Cl)][dNMeV]P)) fall in the same range of IC50: 1000 to 2500 nM for the first, 1000 to 2500 nM for the second.

First: C[C@H]1C(=O)N[C@@H](Cc2ccc(Cl)cc2)C(=O)N2CCCC[C@@H]2C(=O)N2CCC[C@H]2C(=O)N[C@@H](Cc2ccc(O)cc2)C(=O)N[C@@H](CCC(=O)O)C(=O)N[C@@H](Cc2cccnc2)C(=O)N2CCC[C@@H]2C(=O)N(C)[C@@H](C)C(=O)N[C@@H](Cc2ccc(F)cc2)C(=O)N1C [Compound 15, [H]OC(=O)CC[C@@H]1NC(=O)[C@H](Cc2ccc(O[H])cc2)NC(=O)[C@@H]2CCCN2C(=O)[C@H]2CCCCN2C(=O)[C@H](Cc2ccc(Cl)cc2)NC(=O)[C@H](C)N(C)C(=O)[C@H](Cc2ccc(F)cc2)NC(=O)[C@H](C)N(C)C(=O)[C@H]2CCCN2C(=O)[C@H](Cc2cccnc2)NC1=O] (cyclo([3Pal][dP][NMeA][Phe(4-F)][NMeA][Phe(4-Cl)][dPip]PYE))
Second: C[C@H]1C(=O)N[C@@H](Cc2ccc(Cl)cc2)C(=O)N2CCCC[C@@H]2C(=O)N2CCC[C@H]2C(=O)N[C@@H](Cc2cccnc2)C(=O)N[C@@H](CCC(=O)O)C(=O)N[C@@H](Cc2ccc(O)cc2)C(=O)N2CCC[C@@H]2C(=O)N(C)[C@@H](C)C(=O)N[C@@H](Cc2ccc(F)cc2)C(=O)N1C [Compound 16, [H]OC(=O)CC[C@@H]1NC(=O)[C@H](Cc2cccnc2)NC(=O)[C@@H]2CCCN2C(=O)[C@H]2CCCCN2C(=O)[C@H](Cc2ccc(Cl)cc2)NC(=O)[C@H](C)N(C)C(=O)[C@H](Cc2ccc(F)cc2)NC(=O)[C@H](C)N(C)C(=O)[C@H]2CCCN2C(=O)[C@H](Cc2ccc(O[H])cc2)NC1=O] (cyclo([3Pal]EY[dP][NMeA][Phe(4-F)][NMeA][Phe(4-Cl)][dPip]P))
The IC50 of the first is higher: 1000 to 2500 nM for the first, < 1000 nM for the second.

`COCCN1CC(=O)N(C)[C@@H](C)C(=O)N[C@@H](Cc2ccc(F)cc2)C(=O)N(C)[C@@H](C)C(=O)N[C@@H](Cc2ccc(Cl)cc2)C(=O)N(C)[C@H](C(C)C)C(=O)N2CCC[C@H]2C(=O)N[C@@H](Cc2cccs2)C(=O)N[C@@H](C(C)(C)C)C(=O)N[C@@H](Cc2cccnc2)C1=O` [Compound 17, COCCN1CC(=O)N(C)[C@@H](C)C(=O)N[C@@H](Cc2ccc(F)cc2)C(=O)N(C)[C@@H](C)C(=O)N[C@@H](Cc2ccc(Cl)cc2)C(=O)N(C)[C@H](C(C)C)C(=O)N2CCC[C@H]2C(=O)N[C@@H](Cc2cccs2)C(=O)N[C@H](C(=O)N[C@@H](Cc2cccnc2)C1=O)C(C)(C)C] (cyclo([2Thi][Tle][3Pal][Nme][NMeA][Phe(4-F)][NMeA][Phe(4-Cl)][dNMeV]P)) and `COCCN1CC(=O)N(C)[C@@H](C)C(=O)N[C@@H](Cc2ccc(F)cc2)C(=O)N(C)[C@@H](C)C(=O)N[C@@H](Cc2ccc(Cl)cc2)C(=O)N(C)[C@H](C(C)C)C(=O)N2CCC[C@H]2C(=O)N[C@@H](Cc2ccccc2)C(=O)N[C@@H](C(C)(C)C)C(=O)N[C@@H](Cc2cccnc2)C1=O` [Compound 23, COCCN1CC(=O)N(C)[C@@H](C)C(=O)N[C@@H](Cc2ccc(F)cc2)C(=O)N(C)[C@@H](C)C(=O)N[C@@H](Cc2ccc(Cl)cc2)C(=O)N(C)[C@H](C(C)C)C(=O)N2CCC[C@H]2C(=O)N[C@@H](Cc2ccccc2)C(=O)N[C@H](C(=O)N[C@@H](Cc2cccnc2)C1=O)C(C)(C)C] (cyclo([3Pal][Nme][NMeA][Phe(4-F)][NMeA][Phe(4-Cl)][dNMeV]PF[Tle])) cannot be ordered by IC50: < 1000 nM for the first, < 1000 nM for the second.

`COCCN1CC(=O)N[C@@H](Cc2ccc(Cl)cc2)C(=O)N2CCCC[C@@H]2C(=O)N2CCC[C@H]2C(=O)N[C@@H](Cc2ccccc2)C(=O)N[C@@H](C(C)(C)C)C(=O)N[C@@H](Cc2cccnc2)C(=O)N2CCC[C@@H]2C(=O)N(C)[C@@H](C)C(=O)N[C@@H](Cc2ccc(F)cc2)C1=O` [Compound 18, COCCN1CC(=O)N[C@@H](Cc2ccc(Cl)cc2)C(=O)N2CCCC[C@@H]2C(=O)N2CCC[C@H]2C(=O)N[C@@H](Cc2ccccc2)C(=O)N[C@H](C(=O)N[C@@H](Cc2cccnc2)C(=O)N2CCC[C@@H]2C(=O)N(C)[C@@H](C)C(=O)N[C@@H](Cc2ccc(F)cc2)C1=O)C(C)(C)C] (cyclo([3Pal][dP][NMeA][Phe(4-F)][Nme][Phe(4-Cl)][dPip]PF[Tle])) and `COCCN1CC(=O)N[C@@H](Cc2ccc(Cl)cc2)C(=O)N2CCCC[C@@H]2C(=O)N2CCC[C@H]2C(=O)N[C@@H](Cc2cccs2)C(=O)N[C@@H](C(C)(C)C)C(=O)N[C@@H](Cc2cccnc2)C(=O)N2CCC[C@@H]2C(=O)N(C)[C@@H](C)C(=O)N[C@@H](Cc2ccc(F)cc2)C1=O` [Compound 25, COCCN1CC(=O)N[C@@H](Cc2ccc(Cl)cc2)C(=O)N2CCCC[C@@H]2C(=O)N2CCC[C@H]2C(=O)N[C@@H](Cc2cccs2)C(=O)N[C@H](C(=O)N[C@@H](Cc2cccnc2)C(=O)N2CCC[C@@H]2C(=O)N(C)[C@@H](C)C(=O)N[C@@H](Cc2ccc(F)cc2)C1=O)C(C)(C)C] (cyclo([2Thi][Tle][3Pal][dP][NMeA][Phe(4-F)][Nme][Phe(4-Cl)][dPip]P)) cannot be ordered by IC50: < 1000 nM for the first, < 1000 nM for the second.

First: C[C@H]1C(=O)N[C@@H](Cc2ccc(F)cc2)C(=O)N[C@@H](C(C)(C)C)C(=O)N[C@@H](Cc2ccc(Cl)cc2)C(=O)N2CCCC[C@@H]2C(=O)N2CCC[C@H]2C(=O)N[C@@H](Cc2ccccc2)C(=O)N2CC(C2)C(=O)N[C@@H](Cc2cccnc2)C(=O)N2CCC[C@@H]2C(=O)N1C [Compound 19, C[C@@H]1N(C)C(=O)[C@H]2CCCN2C(=O)[C@H](Cc2cccnc2)NC(=O)C2CN(C2)C(=O)[C@H](Cc2ccccc2)NC(=O)[C@@H]2CCCN2C(=O)[C@H]2CCCCN2C(=O)[C@H](Cc2ccc(Cl)cc2)NC(=O)[C@@H](NC(=O)[C@H](Cc2ccc(F)cc2)NC1=O)C(C)(C)C] (cyclo([3Pal][dP][NMeA][Phe(4-F)][Tle][Phe(4-Cl)][dPip]PF[Azetidine3carboxylic]))
Second: COCCN1CC(=O)N(C)[C@@H](C)C(=O)N[C@@H](Cc2ccc(F)cc2)C(=O)N(C)[C@@H](C)C(=O)N[C@@H](Cc2ccc(Cl)cc2)C(=O)N2CCCC[C@@H]2C(=O)N2CCC[C@H]2C(=O)N[C@@H](Cc2ccccc2)C(=O)N[C@@H](C(C)(C)C)C(=O)N[C@@H](Cc2cccnc2)C1=O [Compound 21, COCCN1CC(=O)N(C)[C@@H](C)C(=O)N[C@@H](Cc2ccc(F)cc2)C(=O)N(C)[C@@H](C)C(=O)N[C@@H](Cc2ccc(Cl)cc2)C(=O)N2CCCC[C@@H]2C(=O)N2CCC[C@H]2C(=O)N[C@@H](Cc2ccccc2)C(=O)N[C@H](C(=O)N[C@@H](Cc2cccnc2)C1=O)C(C)(C)C] (cyclo([3Pal][Nme][NMeA][Phe(4-F)][NMeA][Phe(4-Cl)][dPip]PF[Tle]))
The IC50 of the first is lower: < 1000 nM for the first, 1000 to 2500 nM for the second.

First: COCCN1CC(=O)N(C)[C@@H](C)C(=O)N[C@@H](Cc2ccc(F)cc2)C(=O)N(C)[C@@H](C)C(=O)N[C@@H](Cc2ccc(Cl)cc2)C(=O)N2CCCC[C@@H]2C(=O)N2CCC[C@H]2C(=O)N[C@@H](Cc2cccs2)C(=O)N[C@@H](C(C)(C)C)C(=O)N[C@@H](Cc2cccnc2)C1=O [Compound 20, COCCN1CC(=O)N(C)[C@@H](C)C(=O)N[C@@H](Cc2ccc(F)cc2)C(=O)N(C)[C@@H](C)C(=O)N[C@@H](Cc2ccc(Cl)cc2)C(=O)N2CCCC[C@@H]2C(=O)N2CCC[C@H]2C(=O)N[C@@H](Cc2cccs2)C(=O)N[C@H](C(=O)N[C@@H](Cc2cccnc2)C1=O)C(C)(C)C] (cyclo([2Thi][Tle][3Pal][Nme][NMeA][Phe(4-F)][NMeA][Phe(4-Cl)][dPip]P))
Second: COCCN1CC(=O)N(C)[C@@H](C)C(=O)N[C@@H](Cc2ccc(F)cc2)C(=O)N(C)[C@@H](C)C(=O)N[C@@H](Cc2ccc(Cl)cc2)C(=O)N2CCCC[C@@H]2C(=O)N2CCC[C@H]2C(=O)N[C@@H](Cc2ccccc2)C(=O)N[C@@H](C(C)(C)C)C(=O)N[C@@H](Cc2cccc(F)c2)C1=O [Compound 22, COCCN1CC(=O)N(C)[C@@H](C)C(=O)N[C@@H](Cc2ccc(F)cc2)C(=O)N(C)[C@@H](C)C(=O)N[C@@H](Cc2ccc(Cl)cc2)C(=O)N2CCCC[C@@H]2C(=O)N2CCC[C@H]2C(=O)N[C@@H](Cc2ccccc2)C(=O)N[C@H](C(=O)N[C@@H](Cc2cccc(F)c2)C1=O)C(C)(C)C] (cyclo(F[Tle][Phe(3-F)][Nme][NMeA][Phe(4-F)][NMeA][Phe(4-Cl)][dPip]P))
The IC50 of the first is lower: < 1000 nM for the first, 1000 to 2500 nM for the second.
